Assay [1] has as its target T1, PI3Kδ (Homo sapiens, UniProt O00329).
T1 construct: purchased Millipore 14-604-K
Description: In vitro test of enzyme activity (ADP-Glo lipokinase), PI3K delta. The assay is classed as biochemical. As to conditions: 40 μM ATP, 50 μM PIP2:3PS, 120 min. In general terms: ADP-Glo turns the ADP formed in a reaction into a luminescent signal.

Assay [2] concerns human ovarian cancer SK-OV-3 cells. Description: Subcutaneous xenograft tumor model of human ovarian cancer SK-OV-3 cells. The format is in vivo, BALB/c nude mouse. Particulars: SK-OV-3 xenograft, 30 mpk. How it is done: (2) BALB/c nude mouse subcutaneous xenograft tumor model of human ovarian cancer SK-OV-3 cells
Human ovarian cancer SK-OV-3 cells (ECACC-91091004) were subjected to in vitro monolayer culture, and the culture conditions were: McCoy's 5a medium (Gibco, 16600-082) with 10% fetal bovine serum and 100 U/mL penicillin and 100 µg/mL streptomycin, 37° C. and 5% CO2 incubator. The cells were passaged by digestion with trypsin-EDTA twice a week. When the cells saturation reached 80%-90%, the cells were collected, counted, and inoculated.
0.2 mL of 10×10^6 SK-OV-3 cells were subcutaneously inoculated into the right back of each nude mouse (PBS:Matrigel=1:1). When the average tumor volume reached 200 mm^3, 48 tumor-bearing mice were divided into 8 groups by stratified random method with 6 mice in each group, which were administered on the day of grouping.
Preparation of Test Substance
Vehicle group: 2.0 g of methyl cellulose was weighed in a 500 mL glass bottle, followed by addition of 399.2 mL of ddH2O and 0.8 mL of Tween 80. […]
The experimental index was to evaluate whether the tumor growth was inhibited, delayed or cured. The diameter of the tumor was measured with a vernier caliper twice a week. […]
The antitumor efficacy of the compound was evaluated by TGI (%) or relative tumor proliferation rate T/C (%). […]
Background: Xenograft models place foreign cells or tissue in a host animal.

The target of assay [3] is T2, PI3Kβ (Homo sapiens, UniProt P42338).
T2 construct: purchased Promega V1751
T2 sequence (P42338 whole entry): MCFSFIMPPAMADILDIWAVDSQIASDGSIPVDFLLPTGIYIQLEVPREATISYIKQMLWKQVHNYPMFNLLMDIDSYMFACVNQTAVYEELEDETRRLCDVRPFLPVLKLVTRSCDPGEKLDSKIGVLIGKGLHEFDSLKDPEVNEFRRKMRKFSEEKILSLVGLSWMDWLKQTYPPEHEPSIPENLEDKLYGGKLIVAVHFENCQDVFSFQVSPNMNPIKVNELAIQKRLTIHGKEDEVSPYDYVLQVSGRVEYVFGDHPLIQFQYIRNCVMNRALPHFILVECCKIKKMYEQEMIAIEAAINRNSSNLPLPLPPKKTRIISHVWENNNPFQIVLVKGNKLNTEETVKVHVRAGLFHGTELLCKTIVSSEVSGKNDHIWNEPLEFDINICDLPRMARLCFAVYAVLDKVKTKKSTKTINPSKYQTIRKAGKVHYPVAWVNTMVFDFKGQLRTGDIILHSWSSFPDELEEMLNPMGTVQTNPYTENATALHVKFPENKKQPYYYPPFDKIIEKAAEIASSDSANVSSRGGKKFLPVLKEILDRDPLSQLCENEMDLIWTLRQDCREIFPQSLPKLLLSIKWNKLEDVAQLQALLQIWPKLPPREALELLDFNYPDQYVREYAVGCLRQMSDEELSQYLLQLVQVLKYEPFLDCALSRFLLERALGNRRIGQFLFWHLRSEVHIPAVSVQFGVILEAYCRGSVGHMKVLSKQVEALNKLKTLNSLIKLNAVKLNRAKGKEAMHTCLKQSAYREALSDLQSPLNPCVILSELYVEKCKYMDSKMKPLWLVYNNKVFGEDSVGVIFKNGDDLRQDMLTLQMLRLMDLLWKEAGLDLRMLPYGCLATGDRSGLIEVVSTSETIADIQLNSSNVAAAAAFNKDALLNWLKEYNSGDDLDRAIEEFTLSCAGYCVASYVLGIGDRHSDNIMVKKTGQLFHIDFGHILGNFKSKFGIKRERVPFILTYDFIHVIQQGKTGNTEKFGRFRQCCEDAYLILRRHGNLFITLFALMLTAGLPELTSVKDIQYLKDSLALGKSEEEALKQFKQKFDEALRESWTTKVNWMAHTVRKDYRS
T2 sequence (P27986 whole entry partner): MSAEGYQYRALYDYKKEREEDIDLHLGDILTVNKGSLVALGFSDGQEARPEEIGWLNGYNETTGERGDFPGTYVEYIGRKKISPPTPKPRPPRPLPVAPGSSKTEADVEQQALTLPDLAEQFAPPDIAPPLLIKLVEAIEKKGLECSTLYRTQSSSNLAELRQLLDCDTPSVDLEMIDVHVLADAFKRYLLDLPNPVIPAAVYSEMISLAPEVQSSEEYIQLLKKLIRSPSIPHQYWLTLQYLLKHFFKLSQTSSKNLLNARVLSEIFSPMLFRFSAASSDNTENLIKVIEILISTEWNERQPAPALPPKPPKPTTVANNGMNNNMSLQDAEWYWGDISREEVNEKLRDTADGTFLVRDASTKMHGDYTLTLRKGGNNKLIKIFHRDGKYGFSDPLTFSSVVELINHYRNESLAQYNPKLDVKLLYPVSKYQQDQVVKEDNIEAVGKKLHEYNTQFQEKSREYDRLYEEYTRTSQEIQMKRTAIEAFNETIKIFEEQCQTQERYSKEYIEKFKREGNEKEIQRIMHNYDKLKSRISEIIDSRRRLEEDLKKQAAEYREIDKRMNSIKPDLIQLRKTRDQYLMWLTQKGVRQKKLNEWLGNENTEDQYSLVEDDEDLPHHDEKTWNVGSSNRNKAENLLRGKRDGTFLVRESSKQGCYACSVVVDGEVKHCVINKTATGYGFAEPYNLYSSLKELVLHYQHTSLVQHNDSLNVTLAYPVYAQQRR
Description: In vitro test of enzyme activity (ADP-Glo lipokinase), PI3K beta. As to conditions: 40 μM ATP, 50 μM PIP2:3PS, 120 min. The assay is classed as biochemical.

The text below walks through data of US20200317660A1, “Quinazolinone Compound and Application Thereof” (LUOXIN PHARMACEUTICAL (SHANGHAI) CO., LTD., priority 2017, published 2020).

T1 sequence (O00329 whole entry): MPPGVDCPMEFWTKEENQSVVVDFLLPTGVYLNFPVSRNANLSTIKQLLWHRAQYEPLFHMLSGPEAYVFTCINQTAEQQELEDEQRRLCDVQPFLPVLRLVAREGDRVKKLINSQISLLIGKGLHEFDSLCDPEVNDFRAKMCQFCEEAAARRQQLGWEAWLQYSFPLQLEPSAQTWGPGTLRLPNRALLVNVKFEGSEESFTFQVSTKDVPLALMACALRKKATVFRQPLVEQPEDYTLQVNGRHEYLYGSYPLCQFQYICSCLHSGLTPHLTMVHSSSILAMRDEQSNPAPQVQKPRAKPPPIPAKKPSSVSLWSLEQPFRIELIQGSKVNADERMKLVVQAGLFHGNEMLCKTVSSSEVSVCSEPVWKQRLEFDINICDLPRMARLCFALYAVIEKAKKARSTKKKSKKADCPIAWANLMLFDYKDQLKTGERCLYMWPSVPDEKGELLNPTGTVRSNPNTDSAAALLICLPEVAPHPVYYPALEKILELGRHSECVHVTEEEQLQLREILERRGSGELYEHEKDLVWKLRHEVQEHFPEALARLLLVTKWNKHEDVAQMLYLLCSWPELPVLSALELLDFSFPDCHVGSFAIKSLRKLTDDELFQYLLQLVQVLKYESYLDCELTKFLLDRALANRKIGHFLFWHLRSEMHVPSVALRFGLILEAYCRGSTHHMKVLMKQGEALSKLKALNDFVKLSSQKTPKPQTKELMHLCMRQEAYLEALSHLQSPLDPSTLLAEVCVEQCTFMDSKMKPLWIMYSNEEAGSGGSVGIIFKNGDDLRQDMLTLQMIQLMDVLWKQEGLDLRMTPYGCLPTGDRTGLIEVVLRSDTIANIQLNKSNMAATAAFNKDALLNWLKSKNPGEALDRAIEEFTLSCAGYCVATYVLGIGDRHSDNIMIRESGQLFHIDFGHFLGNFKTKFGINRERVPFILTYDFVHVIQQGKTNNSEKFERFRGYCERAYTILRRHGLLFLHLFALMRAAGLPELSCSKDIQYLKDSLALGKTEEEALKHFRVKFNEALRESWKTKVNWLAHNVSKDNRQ
T1 sequence (P27986 whole entry partner): as the sequence (P27986 whole entry partner) above

The term IC50 denotes the concentration at which inhibition is half-maximal. As for `CNC(=O)CCCn1cnc2ccc(-c3cnc(OC)c(NS(=O)(=O)c4ccc(F)cc4Cl)c3)cc2c1=O` [WX198], the IC50 in assay [1] was 2.1 nM; in assay [3], 33 nM. The same compound returned a TGI % in assay [2] of 62.6%.
